Laboratory results published in paper PMC4306947, “Synthesis and Antiproliferative Activity of Thiazolyl-bis-pyrrolo[2,3-b]pyridines and Indolyl-thiazolyl-pyrrolo[2,3-c]pyridines, Nortopsentin Analogues” (Marine Drugs, 2015).

Key:
A498 = test: NCI-60 in vitro tumor cell screen, A498; assay type: cell-based; conditions: Homo sapiens; A498, Renal Cancer
Procedure: (§1) All the synthesized thiazoles 1a–l, 2a–j, 3a–f and 4a–f were evaluated by the National Cancer Institute (Bethesda MD) for cytotoxicity against the NCI-60 cell line panel using standard protocols. Initially, all derivatives were tested at a single dose (10^−5 M) on the full panel of approximately 60 human tumor cell lines derived from 9 human cancer cell types, that have been grouped in disease sub-panels including leukemia, non-small-cell lung, colon, central nervous system (CNS), melanoma, ovarian, renal, prostate and breast cancers (data not shown). Compounds 1k and 4c were further selected for full evaluation at five concentration levels (10^−4–10^−8 M).
(§2) The antitumor activity of compounds 1k and 4c was given by three parameters for each cell line: GI50 (GI50 is the molar concentration of the compound that inhibits 50% net cell growth), TGI (TGI is the molar concentration of the compound leading to total inhibition of net cell growth), and LC50 (LC50 is the molar concentration of the compound that induces 50% net cell death). The average values of mean graph midpoint (MG_MID) were calculated for each of these parameters.

CCRF-CEM = test: NCI-60 in vitro tumor cell screen, CCRF-CEM; assay type: cell-based; conditions: Homo sapiens, Leukemia
Procedure: as §1, §2

SK-MEL-5 = test: NCI-60 in vitro tumor cell screen, SK-MEL-5; assay type: cell-based; conditions: Homo sapiens; SK-MEL-5, Melanoma
Procedure: as §1, §2

NCI-H322M = test: NCI-60 in vitro tumor cell screen, NCI-H322M; assay type: cell-based; conditions: Homo sapiens, Non-Small Cell Lung Cancer
Procedure: as §1, §2

NCI/ADR-RES = test: NCI-60 in vitro tumor cell screen, NCI/ADR-RES; assay type: cell-based; conditions: Homo sapiens, Ovarian Cancer
Procedure: as §1, §2

NCI-H460 = test: NCI-60 in vitro tumor cell screen, NCI-H460; assay type: cell-based; conditions: Homo sapiens; NCI-H460, Non-Small Cell Lung Cancer
Procedure: as §1, §2

UACC-62 = test: NCI-60 in vitro tumor cell screen, UACC-62; assay type: cell-based; conditions: Homo sapiens; UACC-62, Melanoma
Procedure: as §1, §2

T-47D = test: NCI-60 in vitro tumor cell screen, T-47D; assay type: cell-based; conditions: Homo sapiens, T47D, Breast Cancer
Procedure: as §1, §2

SNB-19 = test: NCI-60 in vitro tumor cell screen, SNB-19; assay type: cell-based; conditions: Homo sapiens; SNB-19, CNS Cancer
Procedure: as §1, §2

MDA-MB-468 = test: NCI-60 in vitro tumor cell screen, MDA-MB-468; assay type: cell-based; conditions: Homo sapiens; MDA-MB-468, Breast Cancer
Procedure: as §1, §2

U251 = test: NCI-60 in vitro tumor cell screen, U251; assay type: cell-based; conditions: Homo sapiens, U-251; U251, CNS Cancer
Procedure: as §1, §2

HCT-116 = test: NCI-60 in vitro tumor cell screen, HCT-116; assay type: cell-based; conditions: Homo sapiens; HCT-116, Colon Cancer; measured by NCI after 72 h treatment
Procedure: as §1, §2

OVCAR-4 = test: NCI-60 in vitro tumor cell screen, OVCAR-4; assay type: cell-based; conditions: Homo sapiens; OVCAR-4, Ovarian Cancer
Procedure: as §1, §2

MOLT-4 = test: NCI-60 in vitro tumor cell screen, MOLT-4; assay type: cell-based; conditions: Homo sapiens; MOLT-4, Leukemia
Procedure: as §1, §2

HCT-15 = test: NCI-60 in vitro tumor cell screen, HCT-15; assay type: cell-based; conditions: Homo sapiens; HCT-15, Colon Cancer
Procedure: as §1, §2

KM12 = test: NCI-60 in vitro tumor cell screen, KM12; assay type: cell-based; conditions: Homo sapiens; KM12, Colon Cancer
Procedure: as §1, §2

DU-145 = test: NCI-60 in vitro tumor cell screen, DU-145; assay type: cell-based; conditions: Homo sapiens; DU-145, Prostate Cancer
Procedure: as §1, §2

HCT-116 cells [1] = test: Mitochondrial transmembrane potential (DiOC6 flow cytofluorometry); assay type: cell-based, human; conditions: 24 h
Procedure: Changes of mitochondrial transmembrane potential (Δψm) were assessed by flow cytofluorometry, using the cationic lipophilic dye 3,3′-dihexyloxacarbocyanine iodide(3) (DiOC6) (Molecular Probes, Inc., Life Technologies Italia, Monza, Italy) which accumulates in the mitochondrial matrix. Changes in mitochondrial membrane potential are indicated by a reduction in the DiOC6-induced fluorescence intensity. After 24 h treatment, HCT116 cells were incubated with DiOC6 at a 40 nmol/L final concentration, for 15 min at 37 °C. After centrifugation, cells were washed with PBS and suspended in 500 μL PBS. Fluorescent intensities were analysed in at least 1 × 10^4 cells for each sample.

MCF7 = test: NCI-60 in vitro tumor cell screen, MCF7; assay type: cell-based; conditions: Homo sapiens; MCF7, Breast Cancer
Procedure: as §1, §2

RXF393 = test: NCI-60 in vitro tumor cell screen, RXF393; assay type: cell-based; conditions: Homo sapiens, RXF 393; RXF393, Renal Cancer
Procedure: as §1, §2

HCT-116 cells [2] = test: Cell cycle analysis by flow cytometry (propidium iodide); assay type: cell-based, human; conditions: 24 h, concentrations above and below GI50
Procedure: Cell cycle stage was analyzed by flow cytometry. HCT-116 cells (5.0 × 10^4 cells/cm^2) were seeded in triplicate in 24-wells culture plates. After an overnight incubation, the cells were washed with fresh medium and incubated with compounds 1k and 4c in RPMI for 24 h. Then cells were harvested by trypsinization. Aliquots of 1 × 10^6 cells were washed with PBS and incubated in the dark in a PBS solution containing 20 μg/mL propidium iodide (PI) and 200 μg/mL RNase, for 30 min, at room temperature. Then samples of at least 1.0 × 10^4 cells were subjected to fluorescence-activated cell sorting (FACS) analysis by Epics XL™ flow cytometer using Expo32 software (Beckman Coulter, Fullerton, CA, USA).

TK-10 = test: NCI-60 in vitro tumor cell screen, TK-10; assay type: cell-based; conditions: Homo sapiens; TK-10, Renal Cancer
Procedure: as §1, §2

NCI-H522 = test: NCI-60 in vitro tumor cell screen, NCI-H522; assay type: cell-based; conditions: Homo sapiens; NCI-H522, Non-Small Cell Lung Cancer
Procedure: as §1, §2

MDA-MB-231/ATCC = test: NCI-60 in vitro tumor cell screen, MDA-MB-231/ATCC; assay type: cell-based; conditions: Homo sapiens, Breast Cancer
Procedure: as §1, §2

[3] = concentration GI30, control 3.9%
[4] = concentration GI70, control 3.9%

Row | Compound | GI50 (A498) [nM] | GI50 (CCRF-CEM) [nM] | GI50 (SK-MEL-5) [nM] | GI50 (NCI-H322M) [nM] | GI50 (NCI/ADR-RES) [nM] | GI50 (NCI-H460) [nM] | GI50 (UACC-62) [nM] | GI50 (T-47D) [nM] | GI50 (SNB-19) [nM] | GI50 (MDA-MB-468) [nM] | GI50 (U251) [nM] | GI50 (HCT-116) [nM] | GI50 (OVCAR-4) [nM] | GI50 (MOLT-4) [nM] | GI50 (HCT-15) [nM] | GI50 (KM12) [nM] | GI50 (DU-145) [nM] | mitochondrial transmembrane potential (Δψm) loss, AQ (HCT-116 cells [1]; [3]) [%] | mitochondrial transmembrane potential (Δψm) loss, AQ (HCT-116 cells [1]; [4]) [%] | GI50 (MCF7) [nM] | further results
1 | Clc1nccc2c(-c3csc(-c4c[nH]c5ccc(Br)cc45)n3)c[nH]c12 [Compound 4c, 3-[2-(5-Bromo-1H-indol-3-yl)-1,3-thiazol-4-yl]-7-chloro-1H-pyrrolo[2,3-c]pyridine] | 1560 | 3160 | 2610 | 3540 | 2710 | 2160 | 2190 | 3120 | 3250 | 1180 | 2050 | 2350 | 3250 | 3020 | 1400 | 2150 | 1760 | 3.8 | 14.7 | 2200 | GI50 (RXF393): 1480 nM; alteration of cell cycle distribution (HCT-116 cells [2]): dose-dependent accumulation of cells in G1 phase; GI50 (TK-10): 4160 nM; GI50 (NCI-H522): 2280 nM; GI50 (MDA-MB-231/ATCC): 1680 nM
2 | Cn1cc(-c2csc(-c3c[nH]c4ncccc34)n2)c2cc(Br)cnc21 [Compound 1k, 5-Bromo-1-methyl-3-[2-(1H-pyrrolo[2,3-b]pyridin-3-yl)-1,3-thiazol-4-yl]-1H-pyrrolo[2,3-b]pyridine] | 10900 | 6810 | 2050 | > 100000 | 3880 | 2980 | 3470 | 1800 | 6740 | 810 | 2700 | 2910 | 2030 | > 100000 | 13700 | 5700 | 3510 | 26.0 | 35.3 | 6770 | GI50 (RXF393): 2050 nM; alteration of cell cycle distribution (HCT-116 cells [2]): dose-dependent accumulation of cells in G2/M phase; GI50 (TK-10): 3770 nM; GI50 (NCI-H522): 4860 nM; GI50 (MDA-MB-231/ATCC): 3020 nM
